Test results reported in PubChem BioAssay (NCI).
Several values for one entry are separate records, joined by “and”; a condition that tells them apart may be missing. Identical values can stand only once.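 Following 48 hours of exposure in 96-well plates, responses at five concentrations were used to interpolate endpoints linearly. GI50 marks 50% less growth. The concentration for full growth arrest is given as TGI.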

How the values were obtained:
Test in all cases: inhibition of tumour cell growth, NCI panel, 48 h
[1] = tested on: T-47D breast
[2] = tested on: DLD-1 colon
[3] = tested on: DMS 114 small cell lung
[4] = tested on: KM20L2 colon
[5] = tested on: XF 498 CNS
[6] = tested on: LXFL 529 NSCLC
[7] = tested on: RXF-631 renal
[8] = tested on: HOP-18 NSCLC
[9] = tested on: MDA-N

Cc1n[nH]c(=S)n1/N=C/c1ccc(F)c(Oc2ccccc2)c1
GI50 [1]: > 100 µM
TGI [1]: > 100 µM

C#CCOCn1cnc2c(=S)nc[nH]c21
TGI [2]: > 100 µM
TGI [3]: > 100 µM
TGI [4]: > 100 µM
TGI [5]: > 100 µM
TGI [6]: > 100 µM
TGI [7]: > 100 µM

C/C=C/C=N/N(C(=O)c1cc([N+](=O)[O-])cc([N+](=O)[O-])c1)C1=NC(c2ccccc2)C(c2ccccc2)=NN1 (centres undefined)
TGI [8]: > 100 µM
TGI [2]: > 100 µM
TGI [3]: 48.4 µM
TGI [4]: 93.9 µM
TGI [5]: > 100 µM
TGI [7]: > 100 µM

COc1cc(/C=C/C(=O)c2ccc(Nc3ncnc4ccccc34)cc2)cc(OC)c1
GI50 [1]: 6.2 µM
TGI [1]: 39.4 µM

COc1cc2ccc3c4c(OC)cc(OC)c(OC)c4c(=O)n(C)c3c2cc1OC
TGI [8]: > 100 µM
GI50 [2]: 1.8 µM
TGI [2]: 4.14 µM and > 33.5 µM
GI50 [3]: 1.87 µM
TGI [3]: 16.7 µM and 26.6 µM
GI50 [4]: 0.446 µM
GI50 [5]: 5.27 µM
TGI [5]: 7.16 µM and 61.2 µM
GI50 [6]: 0.766 µM
TGI [6]: 2.86 µM and > 26.8 µM
GI50 [7]: 0.495 µM

COC(=O)C(C(=O)C(=O)Nc1ccccc1C(C)=O)c1nc2ccc(Cl)cc2[nH]c1=O (centres undefined)
TGI [8]: > 100 µM
TGI [2]: > 100 µM
TGI [3]: > 100 µM
TGI [4]: > 100 µM
TGI [6]: > 100 µM
TGI [7]: > 100 µM

CN[C@]12CC3(C=CC(=O)C=C3)O[C@@]1(Cc1ccc(OC)cc1)N(C)C(=O)N2
GI50 [1]: 2.12 µM
TGI [1]: 7.23 µM

CCC1=C(C)/C(=C/c2[nH]c(CBr)c(CC)c2C)N=C1CBr
TGI [8]: 24.7 µM
TGI [2]: 29 µM
TGI [3]: 27.8 µM
TGI [4]: 32.1 µM
TGI [6]: 17.9 µM
TGI [7]: > 100 µM

Cc1c(C(=O)CC(=O)C(=O)Nc2ccc(Cl)c(Cl)c2)[n+](=O)c2ccccc2n1[O-]
TGI [3]: 34.3 µM
TGI [4]: > 100 µM
TGI [6]: 32.4 µM
TGI [7]: 60.3 µM

ClC1CCC2OOC1O2 (centres undefined)
TGI [3]: > 100 µM
TGI [4]: > 100 µM

O=C(O)c1ccc2c(c1Nc1ccccc1)C(=O)c1ccccc1C2=O
GI50 [1]: 45.6 µM
TGI [1]: > 100 µM

CCOC(=O)c1ccc(N(CCOS(C)(=O)=O)CCOS(C)(=O)=O)cc1C
GI50 [9]: 57.8 µM
TGI [9]: > 100 µM
GI50 [1]: 16.6 µM
TGI [1]: 62.1 µM

Nc1ncnc2c1nc(-c1ccccc1)n2C1OC(CO)C(O)C1O (centres undefined)
TGI [9]: > 100 µM
TGI [1]: > 100 µM

COc1ccc(NC(=O)C(=O)C2CNC(=O)NC2=O)c(OC)c1 (centres undefined)
TGI [8]: > 100 µM
TGI [2]: > 100 µM
TGI [3]: > 100 µM
TGI [4]: > 100 µM
TGI [5]: > 100 µM
TGI [6]: > 100 µM

COC(=O)C1=CN=C(C(=O)OC)NN1
TGI [8]: > 100 µM
TGI [2]: > 100 µM
TGI [3]: > 100 µM
TGI [4]: > 100 µM
TGI [5]: > 100 µM
TGI [6]: > 100 µM
TGI [7]: > 100 µM

CC(=O)OCc1cc(OC(C)=O)cnc1COC(C)=O
TGI [8]: > 100 µM
TGI [2]: > 100 µM
TGI [3]: > 100 µM
TGI [4]: > 100 µM
TGI [5]: > 100 µM
TGI [6]: > 100 µM
TGI [7]: > 100 µM

COc1ccc(C(c2ccc(C(C)C)cc(=O)c2O)c2ccc3cccnc3c2O)cc1 (centres undefined)
TGI [2]: 15.3 µM
TGI [3]: 0.645 µM
TGI [5]: 16.4 µM
TGI [6]: 15.7 µM

C[C@@H](CO)OCOCc1ccccc1
TGI [2]: > 100 µM
TGI [3]: > 100 µM
TGI [5]: > 100 µM
TGI [6]: > 100 µM

Cc1cccc2c(N=Nc3ccc(S(N)(=O)=O)cc3)c(O)[nH]c12
GI50 [1]: > 25 µM
TGI [1]: > 25 µM

COc1cc(/C=C2\CN(C)C/C(=C\c3cc(OC)c(OC)c(OC)c3)C2=O)cc(OC)c1OC
GI50 [1]: 1.12 µM
TGI [1]: 5.02 µM

Cn1cccc1-c1cc(-c2cccs2)[nH]c(=O)c1C#N
GI50 [1]: > 100 µM
TGI [1]: > 100 µM

N.N.N.N.N.N.[I-].[Os]
GI50 [8]: > 100 µM
TGI [8]: > 100 µM
GI50 [2]: > 100 µM
TGI [2]: > 100 µM
GI50 [4]: > 100 µM
TGI [4]: > 100 µM
GI50 [6]: > 100 µM
TGI [6]: > 100 µM

Cc1ccc([N+](=O)[O-])cc1NC(=O)C(=O)Cc1occc(=O)c1O
TGI [8]: > 100 µM
TGI [2]: > 100 µM
TGI [3]: > 100 µM
TGI [4]: > 100 µM
TGI [5]: > 100 µM

O=C1C(=O)c2ccccc2-c2ccccc21
GI50 [1]: 0.49 µM
TGI [1]: 2.72 µM

O=C(Nc1ccccc1)Nc1cccc(-n2cc(-c3ccncc3)c(-c3ccc(O)c(Cl)c3)n2)c1
GI50 [1]: 4.34 µM
TGI [1]: 25.8 µM

CC1(C)OC(C(N)=O)=C(C(N)=O)O1
TGI [8]: > 100 µM
TGI [2]: > 100 µM
TGI [3]: > 100 µM
TGI [4]: > 100 µM
TGI [5]: > 100 µM
TGI [6]: > 100 µM

O=C(/C=C\c1cccc2ccccc12)c1cccs1
TGI [8]: 21.8 µM
TGI [2]: 16.9 µM
TGI [3]: 14 µM
TGI [4]: 22.5 µM
TGI [6]: 22.9 µM

COc1ccc(-c2nn(-c3cccc(NC(=O)Nc4ccc(Cl)c(C(F)(F)F)c4)c3)cc2-c2ccncc2)cc1Cl
GI50 [1]: 2.22 µM
TGI [1]: > 100 µM

CN1CCC[C@@H]1CCO[C@](C)(c1ccccc1)c1ccc(Cl)cc1
GI50 [1]: 3.29 µM
TGI [1]: 16.4 µM

Cc1c2c(nn1C(=O)c1nn(-c3ccc(Cl)cc3)cc1O)-c1ccccc1CC2
GI50 [1]: 0.0594 µM
TGI [1]: > 100 µM

N#CC(=S)Nc1ccc(Cl)c(Cl)c1
TGI [9]: 88.3 µM
TGI [1]: > 74.8 µM

O=C(O)CC(Nc1ccccc1)C(=O)O (centres undefined)
TGI [9]: > 100 µM
TGI [1]: > 100 µM

CN(C)C(=O)/N=c1\ss/c(=N\C(=S)N(C)C)n1-c1ccccc1
GI50 [8]: > 100 µM
TGI [8]: > 100 µM
TGI [2]: > 100 µM
GI50 [3]: 0.0334 µM
TGI [4]: > 100 µM
TGI [5]: > 85.4 µM
TGI [6]: > 88.4 µM
TGI [7]: > 100 µM

O=C(O)c1ccc(O)c(N=Nc2cc(S(=O)(=O)O)c3ccccc3c2O)c1
TGI [2]: > 100 µM
TGI [3]: > 100 µM
TGI [4]: > 100 µM
TGI [7]: > 100 µM
